The compounds below were run on recombinant NL-Rluc virus (assay: microbe, parasite or virus in culture). Conditions: Human immunodeficiency virus 1, MT2, 120 h.
Format: cell-based, HIV

| Compound | EC50 |
| --- | --- |
| Cc1nc2cc(-n3cc(Cc4ccccc4)cn3)nn2c(N2CCC(C)(C)CC2)c1[C@H](OC(C)(C)C)C(=O)O [Example 33, (S)-2-(2-(4-Benzyl-1H-pyrazol-1-yl)-7-(4,4-dimethylpiperidin-1-yl)-5-methylpyrazolo[1,5-a]pyrimidin-6-yl)-2-(tert-butoxy)acetic acid] | 11 nM |

Same assay, conditions: Human immunodeficiency virus 1, MT2, 120 h, NL-RLuc virus infecting MT-2 cells, 5 days of incubation, luciferase readout; at least 2 experiments; serum condition not given; read-out: EC50

| Compound | EC50 |
| --- | --- |
| Cc1nc2cc(-c3ccc(Cc4ccc(F)cc4)s3)nn2c(N2CCC(C)(C)CC2)c1[C@H](OC(C)(C)C)C(=O)O [Example 25, (S)-2-(tert-Butoxy)-2-(7-(4,4-dimethylpiperidin-1-yl)-2-(5-(4-fluorobenzyl)thiophen-2-yl)-5-methylpyrazolo[1,5-a]pyrimidin-6-yl)acetic acid] | 23 nM |
| Cc1nc2cc(-n3cc(Cc4ccccc4)c(Cl)n3)nn2c(N2CCC(C)(C)CC2)c1[C@H](OC(C)(C)C)C(=O)O [Example 38, (S)-2-(2-(4-Benzyl-3-chloro-1H-pyrazol-1-yl)-7-(4,4-dimethylpiperidin-1-yl)-5-methylpyrazolo[1,5-a]pyrimidin-6-yl)-2-(tert-butoxy)acetic acid] | 23 nM |
| C=CC1(C)CCN(c2c([C@H](OC(C)(C)C)C(=O)O)c(C)nc3cc(-c4ncc(Cc5ccc(F)cc5)s4)nn23)CC1 [Example 23, (S)-2-(tert-Butoxy)-2-(2-(5-(4-fluorobenzyl)thiazol-2-yl)-5-methyl-7-(4-methyl-4-vinylpiperidin-1-yl)pyrazolo[1,5-a]pyrimidin-6-yl)acetic acid] | 12 nM |
| Cc1nc2cc(-c3ncc(CCc4ccc(F)cc4)s3)nn2c(N2CCC(C)(C)CC2)c1[C@H](OC(C)(C)C)C(=O)O [Example 16, (S)-2-(tert-Butoxy)-2-(7-(4,4-dimethylpiperidin-1-yl)-2-(5-(4-fluorophenethyl)thiazol-2-yl)-5-methylpyrazolo[1,5-a]pyrimidin-6-yl)acetic acid] | 38 nM |
| Cc1nc2cc(-c3cnn(Cc4ccccc4)c3)nn2c(N2CCC(C)(C)CC2)c1[C@H](OC(C)(C)C)C(=O)O [Example 39, (S)-2-(2-(1-Benzyl-1H-pyrazol-4-yl)-7-(4,4-dimethylpiperidin-1-yl)-5-methylpyrazolo[1,5-a]pyrimidin-6-yl)-2-(tert-butoxy)acetic acid] | 7 nM |
| Cc1nc2cc(-c3ncc(Cc4ccc(F)cc4)s3)nn2c(-c2cc(F)c3c(c2C)CCCO3)c1[C@H](OC(C)(C)C)C(=O)O [Example 5, (2S)-2-(tert-Butoxy)-2-(7-(8-fluoro-5-methylchroman-6-yl)-2-(5-(4-fluorobenzyl)thiazol-2-yl)-5-methylpyrazolo[1,5-a]pyrimidin-6-yl)acetic acid] | 3 nM |
| Cc1nc2cc(N3CCN(Cc4ccccc4)C3=O)nn2c(N2CCC(C)(C)CC2)c1[C@H](OC(C)(C)C)C(=O)O [Example 26, (S)-2-(2-(3-Benzyl-2-oxoimidazolidin-1-yl)-7-(4,4-dimethylpiperidin-1-yl)-5-methylpyrazolo[1,5-a]pyrimidin-6-yl)-2-(tert-butoxy)acetic acid] | 145 nM |
| Cc1nc2cc(-c3ncc(Cc4ccc(F)cc4)s3)nn2c(N2CCC(C)(O)CC2)c1[C@H](OC(C)(C)C)C(=O)O [Example 18, (S)-2-(tert-Butoxy)-2-(2-(5-(4-fluorobenzyl)thiazol-2-yl)-7-(4-hydroxy-4-methylpiperidin-1-yl)-5-methylpyrazolo[1,5-a]pyrimidin-6-yl)acetic acid] | 143 nM |
| Cc1nc2cc(-c3ncc(Cc4ccc(F)cc4)o3)nn2c(-c2cc(F)c3c(c2C)CCCO3)c1[C@H](OC(C)(C)C)C(=O)O [Example 6, (2S)-2-(tert-Butoxy)-2-(7-(8-fluoro-5-methylchroman-6-yl)-2-(5-(4-fluorobenzyl)oxazol-2-yl)-5-methylpyrazolo[1,5-a]pyrimidin-6-yl)acetic acid] | 6 nM |
| Cc1nc2cc(-c3nc4cc(Cl)ccc4[nH]3)nn2c(-c2cc(F)c3c(c2C)CCCO3)c1[C@H](OC(C)(C)C)C(=O)O [Example 1, (2S)-2-(tert-Butoxy)-2-(2-(5-chloro-1H-benzo[d]imidazol-2-yl)-7-(8-fluoro-5-methylchroman-6-yl)-5-methylpyrazolo[1,5-a]pyrimidin-6-yl)acetic acid] | 47 nM |
| CC1=CCN(c2c([C@H](OC(C)(C)C)C(=O)O)c(C)nc3cc(-c4ncc(Cc5ccc(F)cc5)s4)nn23)CC1 [Example 19, (S)-2-(tert-Butoxy)-2-(2-(5-(4-fluorobenzyl)thiazol-2-yl)-5-methyl-7-(4-methyl-5,6-dihydropyridin-1(2H)-yl)pyrazolo[1,5-a]pyrimidin-6-yl)acetic acid] | 105 nM |
| Cc1nc2cc(-c3ncc(Cc4ccc(F)cc4)s3)nn2c(N2CCC(C)(C3CC3)CC2)c1[C@H](OC(C)(C)C)C(=O)O [Example 24, (S)-2-(tert-Butoxy)-2-(7-(4-cyclopropyl-4-methylpiperidin-1-yl)-2-(5-(4-fluorobenzyl)thiazol-2-yl)-5-methylpyrazolo[1,5-a]pyrimidin-6-yl)acetic acid] | 26 nM |

Same assay, conditions: NL-RLuc virus infecting MT-2 cells, 5 days of incubation, luciferase readout; at least 2 experiments; serum condition not given; read-out: EC50

| Compound | EC50 |
| --- | --- |
| Cc1nc2cc(N3CC(Cc4ccccc4)OC3=O)nn2c(N2CCC(C)(C)CC2)c1[C@H](OC(C)(C)C)C(=O)O (stereo partly drawn) [Example 29, (2S)-2-(2-(5-Benzyl-2-oxooxazolidin-3-yl)-7-(4,4-dimethylpiperidin-1-yl)-5-methylpyrazolo[1,5-a]pyrimidin-6-yl)-2-(tert-butoxy)acetic acid] | 6 nM |
| Cc1nc2cc(N3C(=O)OCC3Cc3ccccc3)nn2c(N2CCC(C)(C)CC2)c1[C@H](OC(C)(C)C)C(=O)O (stereo partly drawn) [Example 28, (2S)-2-(2-(4-Benzyl-2-oxooxazolidin-3-yl)-7-(4,4-dimethylpiperidin-1-yl)-5-methylpyrazolo[1,5-a]pyrimidin-6-yl)-2-(tert-butoxy)acetic acid] | 152 nM |
